The source of these data is ChEMBL document CHEMBL1201862, “PubChem BioAssay data set” (2004).

Each structure is given as a SMILES string. Activity calls are given as the source filed them.

Experiment [1] can be described thus: COV362 cell viability loss – plate reader, dry powder, SA12, cytotoxicity control for PAX8 inhibitor project, dose response (AID 743144). The class given is functional, cell-based.
The nature of experiment [2]: general cell-killing toxicity readout – plate reader, dry powder samples, cytotoxicity control for PAX8 inhibitor project, dose response (AID 743021). The class given is functional, cell-based.
A short description of experiment [3]: inhibitors acting on PAX2 in cells – cell-based, plate reader, dry powder samples, selectivity assay for PAX8 inhibitor project, dose response (AID 743048).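 Also: HEK293 cells carrying a WT1 promoter luciferase reporter driven by expressed Pax2; potency is for inhibition of Pax2 driven reporter signal.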 It is filed as functional.
Experiment [4] is described as follows: cells. It is filed as functional, cell-based.
A short description of experiment [5]: Trypanosoma cruzi growth suppression in host cells – NIH3T3 host cells, beta-gal luminescence, confirmation (AID 2044).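 Also: intracellular parasites grown in NIH/3T3 mouse fibroblasts as host cells; luminescent beta-galactosidase reporter signal from transgenic T. cruzi replicating inside host cells; inhibitors lower the luminescence signal.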 It is filed as functional, cell-based.
The nature of experiment [6]: IGROV1 cell killing – plate reader, dry powder samples, PAX8 inhibitor project, dose response (AID 743043). Conditions: IGROV-1. The class given is functional, cell-based.
The nature of experiment [7]: OVCAR-3 cell viability loss – plate reader, dry powder samples, PAX8 inhibitor project, dose response (AID 743044). The class given is functional, cell-based.
A short description of experiment [8]: cells. It is filed as functional, cell-based. This is another data set of the same source.
Experiment [9] can be described thus: toxicity toward immortalized ovarian surface epithelium – cell-based, plate reader, dry powder samples, cytotoxicity control for PAX8 inhibitor project, dose response (AID 743045). It is filed as functional.
Experiment [10] has as its target T1, Serine/threonine-protein phosphatase (Candida dubliniensis (strain CD36 / CBS 7987 / NCPF 3949 / NRRLY-17841) (Yeast), UniProt B9W6M3).
T1 sequence (B9W6M3 whole entry): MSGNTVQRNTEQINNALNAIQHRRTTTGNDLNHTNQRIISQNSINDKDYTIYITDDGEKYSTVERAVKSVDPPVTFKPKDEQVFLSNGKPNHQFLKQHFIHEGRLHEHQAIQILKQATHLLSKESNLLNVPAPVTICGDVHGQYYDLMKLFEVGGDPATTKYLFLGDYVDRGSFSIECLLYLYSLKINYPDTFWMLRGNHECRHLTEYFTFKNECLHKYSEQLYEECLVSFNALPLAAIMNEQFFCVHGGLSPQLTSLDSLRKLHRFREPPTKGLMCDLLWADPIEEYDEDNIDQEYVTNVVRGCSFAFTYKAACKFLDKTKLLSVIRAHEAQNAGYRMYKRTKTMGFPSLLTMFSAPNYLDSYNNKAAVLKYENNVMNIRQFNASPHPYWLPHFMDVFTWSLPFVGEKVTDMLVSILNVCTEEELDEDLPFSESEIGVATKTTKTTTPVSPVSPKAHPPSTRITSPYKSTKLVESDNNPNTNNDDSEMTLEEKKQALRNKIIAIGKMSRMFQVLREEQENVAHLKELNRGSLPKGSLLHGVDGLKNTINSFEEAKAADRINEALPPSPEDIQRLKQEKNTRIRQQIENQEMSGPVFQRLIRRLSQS
Briefly: blockers of CaCl2-induced CDRE-lacZ signaling – S. cerevisiae, luminescence, secondary, dose response (AID 2388).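 Also: yeast reporter cells carrying a calcineurin-responsive lacZ construct stimulated with calcium chloride; luminescent beta-galactosidase reporter signal in whole cells rather than isolated phosphatase activity; potency for inhibition where a drop in reporter signal means calcineurin blockade.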 The class given is functional, cell-based.

In another experiment the test system is Jurkat. Briefly: SAR Analysis of small molecule inhibitors of T-cell specific antigen receptor-induced NF-kB activation in a Jurkat cell line using a luminescence assay - Set 2. [Related pubchem assays (depositor defined):AID435003, AID435012, AID465]. It is filed as functional, cell-based. Conditions: Homo sapiens.
Experiment [11] is described as follows: non-specific 3'UTR reporter inhibition in Clone20-Shn3RL – cell-based, Renilla luciferase, cherry-picked, counter-screen for Shn3 inhibitor project, dose response (AID 624133). The class given is functional. (In general: Counterscreens check selectivity or assay interference.)
Experiment [12] can be described thus: NIH3T3 cell viability loss – ATP luminescence, mouse fibroblasts, counter-screen, dose response (AID 2010).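 Also: cells exposed to compound for about 90 hours before reading.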 The class given is functional, cell-based.
A short description of experiment [13]: alpha-synuclein stem-loop luciferase translation blockers – H4 neuroglioma cells, luminescence, confirmation (AID 1988). The class given is functional, cell-based.
Experiment [14] in a line: decrease of insulin promoter-GFP reporter – imaging, high-content screening, mouse beta cells (AID 1628). The class given is functional. Conditions: MIN6.
The target of experiment [15] is T2, Alkaline phosphatase, tissue-nonspecific isozyme (Homo sapiens, UniProt P05186).
T2 sequence (P05186 whole entry): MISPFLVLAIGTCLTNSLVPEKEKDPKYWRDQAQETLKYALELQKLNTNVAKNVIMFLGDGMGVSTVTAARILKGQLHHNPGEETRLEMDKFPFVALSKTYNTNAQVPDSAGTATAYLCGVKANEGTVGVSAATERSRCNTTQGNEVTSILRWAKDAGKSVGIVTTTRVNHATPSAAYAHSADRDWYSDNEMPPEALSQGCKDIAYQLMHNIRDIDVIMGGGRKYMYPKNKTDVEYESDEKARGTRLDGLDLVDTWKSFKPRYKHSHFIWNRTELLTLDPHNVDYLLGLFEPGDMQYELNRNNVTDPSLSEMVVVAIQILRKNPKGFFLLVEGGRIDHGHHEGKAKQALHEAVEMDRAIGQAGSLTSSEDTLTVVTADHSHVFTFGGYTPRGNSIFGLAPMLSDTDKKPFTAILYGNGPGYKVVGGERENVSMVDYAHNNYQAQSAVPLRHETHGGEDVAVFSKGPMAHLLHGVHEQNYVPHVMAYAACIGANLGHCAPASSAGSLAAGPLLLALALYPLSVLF
Briefly: activation of tissue-nonspecific alkaline phosphatase – biochemical, TNAP isozyme, human IAP uHTS hits, selectivity assay for human IAP activator project, dose response (AID 488886).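 Also: potency of compounds raising TNAP activity as a selectivity check on IAP activators.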 It is filed as functional.

The nature of experiment [16]: luciferase reporter signal suppression in cells – H4 neuroglioma cells, luminescence, dose response (AID 1990). The class given is functional, cell-based. For orientation: A reporter such as luciferase makes a cellular process visible.
Experiment [17] can be described thus: HepG2 cell cytotoxicity, dose response, cytotoxicity control for non-replicating M. tuberculosis project (AID 489018). It is filed as functional. Conditions: Mycobacterium tuberculosis.
For a further experiment, the system named is HT-1080. Put plainly: HT1080 cell viability loss – fluorescence readout (AID 620). The class given is functional, cell-based. Conditions: Homo sapiens.
A short description of experiment [18]: off-target signal loss in HeLa-CEM21 co-culture – HeLa F-luc CTL cells, cherry-picked, counter-screen for HIV-1 Env fusion inhibitor project, dose response (AID 652040).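 Also: potency for signal decrease marking cytotoxic or nonspecific inhibition.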 The class given is functional, cell-based.
The nature of experiment [19]: blockers of HIV-1 ZM109 envelope-driven cell-cell fusion – HeLa effector, CEM target cells, luciferase, cherry-pick, dose response (AID 652058).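 Also: luciferase signal from HIV-1 Env mediated cell-cell fusion of effector and target cells.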 It is filed as functional, cell-based.
A short description of experiment [20]: Intein inhibitors as potential Tuberculosis drugs, a cytotoxicity screen. [Related pubchem assays (depositor defined):AID2221, AID2223, AID434968, AID435010, AID449749, AID449750, AID489010]. It is filed as functional.
A further experiment addresses Nonstructural protein 1 (Influenza A virus, UniProt Q194T2). The class given is functional, Influenza A virus (A/California/07/2009(H1N1)).
A short description of experiment [21]: THP-1 cell cytotoxicity, dose response, cytotoxicity control for non-replicating M. tuberculosis project (AID 489025). It is filed as functional.
Experiment [22] in a line: viability loss in CEM21 cells – cell-based, CellTiter-Glo luminescence, cherry-picked, cytotoxicity control for viral fusion inhibitor project, dose response (AID 652042).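 Also: potency for signal decrease meaning cytotoxicity.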 It is filed as functional. In general terms: ATP-based viability assays read luminescence as a measure of living cells.
Experiment [23] in a line: microbe, parasite or virus in culture. Conditions: Mycobacterium tuberculosis. The class given is functional.
Experiment [24] concerns the target T3, Sentrin-specific protease 8 (Homo sapiens, UniProt Q96LD8).
T3 sequence (Q96LD8 whole entry): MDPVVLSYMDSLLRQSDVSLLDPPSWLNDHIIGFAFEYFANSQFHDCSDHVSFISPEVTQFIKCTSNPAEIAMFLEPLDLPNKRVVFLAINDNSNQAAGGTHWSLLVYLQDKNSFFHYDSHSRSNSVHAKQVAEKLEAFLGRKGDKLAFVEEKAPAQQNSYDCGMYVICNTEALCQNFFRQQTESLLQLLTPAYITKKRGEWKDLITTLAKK
The class given is functional.

In experiment [25] the target is T3, Sentrin-specific protease 8. The class given is functional. This is another data set of the same source.

Sequence of Nonstructural protein 1 (Q194T2 whole entry): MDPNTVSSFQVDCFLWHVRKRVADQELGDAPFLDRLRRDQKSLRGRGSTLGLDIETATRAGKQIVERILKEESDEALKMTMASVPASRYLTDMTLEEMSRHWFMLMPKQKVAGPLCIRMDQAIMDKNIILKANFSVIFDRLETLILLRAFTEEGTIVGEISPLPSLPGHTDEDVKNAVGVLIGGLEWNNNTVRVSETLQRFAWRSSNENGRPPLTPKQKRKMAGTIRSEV

The AC50 is the concentration giving half of the maximal activity seen. The EC50 is the concentration giving half of the maximal effect. As a reminder, the IC50 is the midpoint of a concentration-inhibition curve. As to `CCCCC(=O)NC(c1ccccc1)c1ccc2cccnc2c1O` (stereo not drawn), the half-maximal activity concentration (AC50) in experiment [1] is 3.28 µM (active); in experiment [2], 63.3 µM (active); in [3], 2.15 µM (active); in experiment [6], 5.47 µM (active); in experiment [7], 2.45 µM (active); in experiment [9] it was 10.9 µM (active). Besides, in experiment [11], the AC50 was 1.31 µM (active). Moreover, the EC50 in “cells [4]” is > 350 µM (not active); in experiment [5], 0.502 µM (active); in the experiment “cells [8]” it was 7.75 µM (active); in [10], > 180 µM (inactive); in experiment [12], 1.03 µM (active). Besides, in the experiment on Jurkat, the IC50 is 5.62 µM (active).
With `O=C(/C=C/c1cccs1)NC(=S)NNC(=O)c1ccccc1O`, the half-maximal effective concentration (EC50) in experiment [13] is > 120 µM (not active); in [15], 11.8 µM (active); in experiment [16], > 120 µM (not active). Also, the IC50 in experiment [14] is 2.78 µM (active).
As for `CC(=O)N(Cc1ccc(F)cc1)C1=C(NCCc2ccccc2)C(=O)c2ccccc2C1=O`, the CC50 is 5.95 µM (active) in experiment [17], 5.56 µM (active) in [20], 0.67 µM (active) in experiment [21] and 10.9 µM (active) in experiment [23]. In addition, the half-maximal effective concentration (EC50) in the experiment with HT-1080 is 15.6 µM (active). Moreover, the AC50 in [18] was 5.21 µM (active); in experiment [19] it was 5.61 µM (active); in experiment [22], 2.16 µM (active). Moreover, the IC50 on Nonstructural protein 1 is 32.2 µM (active).
In the case of `O=C(N/N=C1\C/C(=N\NC(=O)c2ccncc2)c2ccccc21)c1ccncc1`, the IC50 in experiment [24] was 5.02 µM (active); in [25], 1.35 µM (active).
